Three compounds from article PMC7023430, “4-Aminobenzoic Acid Derivatives: Converting Folate Precursor to Antimicrobial and Cytotoxic Agents” (Biomolecules, 2019) can be followed below.

pIC50: −log10 of the molar value. Converted amounts (≈) assume the structure as drawn. Read-outs that look alike come from different tables or passages of the source. Where only a bound is given, the exact number is not on record here.

One data set has as its system eight fungal strains. In words: Antifungal activity. The settings on record: statement over the fungal panel; time not stated. Format: cell-based. The method, boiled down:
(§1)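 Broth microdilution, EUCAST, modified. Medium: RPMI-1640 + L-glutamine + 2% glucose, MOPS pH 7.0; compounds from DMSO, twofold series. Visual MIC, duplicates, ≤1-step discrepancy accepted.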

The test system of data set [1] is ESBL-positive Klebsiella pneumoniae J 14368/08.
The next data set has as its system HepG2 cells. Kind of data set: Cytotoxicity, CellTiter 96 assay. The format is cell-based, human. The settings on record: Homo sapiens, HepG2, 24 h, 24 h incubation. How it is done:
HepG2, human hepatocellular carcinoma cells (ATCC HB-8065; passage 5–8) purchased from Health Protection Agency Culture Collections (ECACC, Salisbury, UK) were cultured in Minimum Essentials Eagle Medium supplemented with 10% fetal bovine serum, 1% L-glutamine solution and non-essential amino acid solution (Sigma-Aldrich, St. Louis, MO, USA) in a humidified atmosphere containing 5% CO2 at 37 °C. For subculturing, the cells were harvested after trypsin/EDTA (Sigma-Aldrich, St. Louis, USA) treatment at 37 °C. To evaluate cytotoxicity, the cells treated with the tested substances were used as experimental groups whereas untreated HepG2 cells served as control groups.
The cells were seeded in a density of 10 000 cells per well in a 96-well plate. The following day the cells were treated with each of the tested substances dissolved in DMSO (maximal incubation concentration of DMSO was 1% v/v). The tested substances were prepared at different incubation concentrations in triplicates according to their solubility. Simultaneously, the controls representing 100% cell viability, 0% cell viability (the cells treated with 10% DMSO), no cell control and vehiculum controls were also involved in triplicates. After 24 h incubation in a humidified atmosphere containing 5% CO2 at 37 °C, the reagent from the kit CellTiter 96 AQueous One Solution Cell Proliferation Assay (CellTiter 96; Promega, Fitchburg, WI, USA) was added. After 2 h incubation at 37 °C absorbance of samples was recorded at 490 nm (TECAN, Infinita M200, Grödig, Austria). A standard toxicological parameter IC50 was calculated by nonlinear regression from a semilogarithmic plot of incubation concentration versus percentage of absorbance relative to untreated controls using GraphPad Prism software (version 6; GraphPad Software, Inc., La Jolla, CA, USA).
The CellTiter 96 assay used is based on the reduction of tetrazolium dye in living cells to formazan, which is then determined colorimetrically. This reduction is related to availability of NADH or NADPH. The decline in levels of these metabolically important compounds in the cell causes that the production of formazan is reduced. For quantitative comparison of cytotoxicity, the parameter IC50 was used.

Data set [2] relates to methicillin-resistant Staphylococcus aureus ATCC 43300, CCM 4750 (MRSA). In words: Antibacterial microdilution broth method, MRSA. The format is cell-based. The settings on record: Staphylococcus aureus. (In general: In broth dilution the organism is exposed to a series of concentrations in liquid medium.)
Data set [3] deals with four Gram-positive and four Gram-negative strains. In words: Antibacterial activity. The format is cell-based.
Another data set deals with Candida tropicalis 156. Kind of data set: Antifungal microdilution broth method, C. tropicalis. The format is cell-based. An outline of the steps:
as §1

Data set [4] relates to Candida albicans ATCC 44859. In words: Antifungal microdilution broth method, C. albicans. The format is cell-based. An outline of the steps:
as §1

Data set [5] concerns Mtb. 331/88 and three non-tuberculous mycobacterial strains. In words: Antimycobacterial activity. The format is cell-based. The settings on record: statement over four mycobacterial strains, time not stated.
The mark [6] stands for this setting: 24 h incubation, read-out: MIC MRSA 24 h.
The mark [7] stands for this setting: 48 h incubation, read-out: MIC MRSA 48 h.
The mark [8] stands for this setting: ATCC44859, 24 h, read-out: MIC CA 24 h.
Where [9] appears, read: ATCC44859, 48 h, read-out: MIC CA 48 h.

For `O=C(O)c1ccc(N=Cc2cc([N+](=O)[O-])ccc2O)cc1` [1f, 4-[(2-Hydroxy-5-nitrobenzylidene)amino]benzoic acid], the MIC in the data set on eight fungal strains is no less than 250 µM; in data set [2] (setting [6]) it was 500 µM (≈ 143 µg/mL); in data set [2] (setting [7]), 500 µM (≈ 143 µg/mL); in data set [3] (Staphylococcus aureus, MRSA, time not stated, read-out: MIC, multiple Gram-positive strains including MRSA), no less than 250 µM; in the data set with Candida tropicalis 156 (24 h, read-out: MIC CT 24 h), greater than 500 µM; with Candida tropicalis 156 (48 h, read-out: MIC CT 48 h), greater than 500 µM. Also, the MIC in data set [4] (setting [8]) and in data set [4] (setting [9]) was 500 µM (≈ 143 µg/mL) throughout. Besides, the “MIC KP-E 24 h” value in data set [1] was greater than 500 µM. The “MIC KP-E 48 h” value in data set [1] is reported as greater than 500 µM. Also, the pIC50 with HepG2 cells was 3.61.
As to `O=C(O)c1ccc(N=Cc2ccc([N+](=O)[O-])o2)cc1` [1r, 4-{[(5-Nitrofuran-2-yl)methylene]amino}benzoic acid], the MIC in data set [5] (Mycobacterium tuberculosis) is 62.5 to 250 µM (≈ 16.3 to 65.1 µg/mL); in data set [2] (setting [6]), 62.5 µM (≈ 16.3 µg/mL); in data set [2] (setting [7]) it was 62.5 µM (≈ 16.3 µg/mL); in data set [3] (converted from 62.5–125 µM, read-out: MIC, staphylococci) it was 16.2 to 32.5 µg/mL; in data set [3] (read-out: MIC, three staphylococcal strains), 62.5 to 125 µM; with Candida tropicalis 156 (24 h, read-out: MIC CT 24 h), 250 µM (≈ 65.1 µg/mL). Moreover, the MIC amounted to 250 µM (≈ 65.1 µg/mL) in the data set with Candida tropicalis 156 (48 h, read-out: MIC CT 48 h); 250 µM (≈ 65.1 µg/mL) in data set [4] (setting [8]); 250 µM (≈ 65.1 µg/mL) in data set [4] (setting [9]). For the same compound, the “MIC KP-E 24 h” value in data set [1] is given as 500 µM (≈ 130 µg/mL). The “MIC KP-E 48 h” value in data set [1] stood at 500 µM (≈ 130 µg/mL). The compound also showed a pIC50 with HepG2 cells of 4.82.
In the case of `O=C(O)c1ccc(NCc2ccccc2O)cc1` [1u, 4-[(2-Hydroxybenzyl)amino]benzoic acid], in data set [5], the “MIC, antimycobacterial activity” value is “only negligible antimycobacterial activity”. Moreover, the “MIC, antifungal activity” value against eight fungal strains is “no antimycotic potency”. Also, in data set [1], the “MIC KP-E 24 h” value is recorded as greater than 500 µM. Also, the “MIC KP-E 48 h” value in data set [1] was greater than 500 µM. The compound also had a pIC50 in the data set with HepG2 cells of less than 3.30. Further, the minimal inhibitory concentration (MIC) is greater than 500 µM in data set [2] (setting [6]); greater than 500 µM in data set [2] (setting [7]); greater than 500 µM in the data set on Candida tropicalis 156 (24 h, read-out: MIC CT 24 h); greater than 500 µM with Candida tropicalis 156 (48 h, read-out: MIC CT 48 h); greater than 500 µM in data set [4] (setting [8]); greater than 500 µM in data set [4] (setting [9]). In data set [3] (statement over the bacterial panel, time not stated), the “MIC, antibacterial activity” value was “avoided any antibacterial action”.

A word on the MIC: it is the smallest concentration in the dilution series that meets the test's criterion for growth inhibition. In general, pIC50 refers to −log10 of the IC50, conventionally taken in molar units.
